The source of these data is patent publication US20210015897A1, “METHODS TO PRODUCE PEPTIDES, POLYPEPTIDES OR CELLS FOR MODULATING IMMUNITY” (IMNATE SARL, priority 2017, published 2021).

Assay [1] relates to class II-restricted effector CD4+ T cells. Nature of the assay: Peptide added to dendritic cells in cultures with class II-restricted effector CD4+ T cells. It is filed as cell-based, human. On the procedure: Naïve human CD4+ T cells are obtained from peripheral blood of subjects carrying either the DQ2 or DQ8 haplotype using microbeads coated with an anti-CD4+ antibody. Such cells are incubated with autologous dendritic cells derived from peripheral blood monocytes and loaded with peptide of sequence (SEQ ID NO: 19) so as to obtain effector CD4+ T cells.
In parallel experiments, a peptide of same sequence but containing a potentiating motif within flanking residues is used. Thus, a peptide of sequence (SEQ ID NO: 20) is produced, which contains in its flanking residues a sequence derived from an antibody to CD4, specific for the second extracellular domain of CD4.

A further assay relates to CD4+ T cells. Nature of the assay: Proliferation of AAV-specific CD4+ T cells on peptide-loaded dendritic cells (thymidine incorporation). It is filed as cell-based, mice. The source says:
The peptide of interest is then produced by chemical synthesis together with a potentiating motif made of a cysteine residue added to flanking regions on each side of the epitope (SEQ ID NO: 18).
In general terms: Incorporation of labelled thymidine or its analogues reports DNA synthesis.

Assay [2] has as its system CD4+ T cells to the AAV capsid. As to the kind of experiment: Functional assay of spleen CD4+ T cells after subcutaneous immunisation with peptide in alum. It is filed as in vivo, mice. The settings on record: 4 subcutaneous administrations at fortnight intervals with alum; spleen 10 days after last immunization.
Another assay deals with AAV vector. Nature of the assay: Immune response to IV AAV vector particles in peptide-immunized mice. The settings on record: 10^9 AAV vector particles IV twice at an interval of 6 weeks. It is filed as in vivo. The text has this: Mice immunized with peptide of SEQ ID NO: 18 are then used for direct IV administration of 10^9 AAV vector particles administered twice at an interval of 6 weeks.

Regarding “SEQ ID NO: 20: peptide of same sequence as SEQ ID NO: 19 with flanking sequence derived from an antibody to CD4 (QLQPFPQPQLPYPQRYD; SEQ I9 + CD4 motif)”, in assay [1], the “apoptosis of antigen-presenting dendritic cell and bystander effector CD4+ T cells” value is listed as “induction of apoptosis”; the “conversion of effector CD4+ T cells” value is recorded as “conversion of effector CD4+ T cells into cells with strong regulatory activity”. For the substance “SEQ ID NO: 17: AAV VP1 capsid peptide encompassing an epitope activating CD4+ T cells (FNGLDKGEPVNEA; AAV)”, the “specificity of CD4+ T cell activation by thymidine incorporation as a marker of proliferation” value in the assay on CD4+ T cells is on record as “confirmed to be specific”.

In the case of “SEQ ID NO: 18: AAV VP1 epitope with a cysteine residue added to flanking regions on each side (HCFNGLDKGEPVNEACH; SEQ 17 + Cys and Cys)”, the “activity of CD4+ T cells obtained by the immunisation schedule” value in assay [2] is “exert a regulatory activity”. Besides, in the assay with AAV vector, the “immune response towards the AAV vector” value was “do not mount an immune response towards the AAV vector”.
